Experimental data published in ChEMBL document CHEMBL1126500, “Kinase bypass: A new strategy for anti-HIV drug design” (Bioorg Med Chem Lett, 1993).

Legend:
[1] = tested on: C8166; experiment: Compound was tested for its ability to inhibit the replication of HIV-1 in C8166 T-cells; type: functional; conditions: Homo sapiens, read-out: ED50 (the source's name)
[2] = Toxic dose required to inhibit the replication of HIV-1 in C8166 T-cells; type: ADME, cell-based; conditions: human, read-out: TD50 (the source's name)

EC50 [1] | Compound | CC50 [2]
35 µM | CCC(=O)O[C@H]1C[C@H](n2cc(C)c(=O)[nH]c2=O)O[C@@H]1COP(=O)(OCC(Cl)(Cl)Cl)OCC(Cl)(Cl)Cl | 80 µM
100 µM | Cc1cn([C@H]2C[C@H](OC=O)[C@@H](COP(=O)(OCC(Cl)(Cl)Cl)OCC(Cl)(Cl)Cl)O2)c(=O)[nH]c1=O | > 200 µM
0.01 µM | Cc1cn([C@H]2C[C@H](N=[N+]=[N-])[C@@H](CO)O2)c(=O)[nH]c1=O [ZIDOVUDINE] | > 200 µM
50 µM | Cc1cn([C@H]2C[C@H](OC(=O)CCl)[C@@H](COP(=O)(OCC(Cl)(Cl)Cl)OCC(Cl)(Cl)Cl)O2)c(=O)[nH]c1=O | 50 µM
75 µM | CCCC(=O)O[C@H]1C[C@H](n2cc(C)c(=O)[nH]c2=O)O[C@@H]1COP(=O)(OCC(Cl)(Cl)Cl)OCC(Cl)(Cl)Cl | 80 µM

Continued, compound first:

Compound | EC50 [1] | CC50 [2]
Cc1cn([C@H]2C[C@H](OC(=O)C(Cl)(Cl)Cl)[C@@H](COP(=O)(OCC(Cl)(Cl)Cl)OCC(Cl)(Cl)Cl)O2)c(=O)[nH]c1=O | 50 µM | > 200 µM
CC(=O)O[C@H]1C[C@H](n2cc(C)c(=O)[nH]c2=O)O[C@@H]1COP(=O)(OCC(Cl)(Cl)Cl)OCC(Cl)(Cl)Cl | 30 µM | > 200 µM
Cc1cn([C@H]2C[C@H](OC(=O)C(C)C)[C@@H](COP(=O)(OCC(Cl)(Cl)Cl)OCC(Cl)(Cl)Cl)O2)c(=O)[nH]c1=O | 40 µM | > 200 µM
CC(=O)O[C@H]1C[C@H](n2cc(C)c(=O)[nH]c2=O)O[C@@H]1CO | > 200 µM | > 200 µM
